# Tested on: cellulite in the thigh
# Assay: Anticellulite activity, intradermal multiple injection in the thigh of female subjects
# Type: in vivo, human
# Conditions: for Reduction of the fatty layer thickness / Reduction of the thigh diameter / Skin firmness / Skin hydration / Surface smoothness: end of treatment (week 6) vs base line; for Reduction of the fatty layer thickness / Reduction of the thigh diameter / Skin firmness / Skin hydration / Surface smoothness / Subjective improvement / Irritation reactions: 50.0 mg in 2.5 mL intradermally by multiple injection; for Reduction of the fatty layer thickness / Reduction of the thigh diameter / Skin firmness / Skin hydration / Surface smoothness / Subjective improvement / Clinical grading / Irritation reactions: once per week; for Subjective improvement / Clinical grading: end of treatment (week 6); for Clinical grading: visual grading of degree of cellulite, scale 0-4, 50.0 mg in 2.5 mL intradermally; for Anticellulite activity (overall, in words): comparison among propionyl L-carnitine, acetyl L-carnitine and L-carnitine; for Irritation reactions: during treatment
# Experimental: The effectiveness of intradermally administration of the product according to the invention was tested for its ability to reduce the appearance of cellulite in the thigh. A total of 54 female subjects ranging in age from 23 to 58 years of age were selected to evaluate the composition of the invention.
# The subjects were selected based on their cellulite intensity in the thigh area having a bi-lateral symmetry. Subjects with grades 1 and 2 cellulite were chosen, as a 5-point grading scale was used to rate the cellulite severity of each subject. The scale ranged from 0 to 4, being 0=No cellulite; 1=Small bumps or depressions; 2=Striations and bumps; 3=Pronounced lumpiness of the skin and striations; 4=All of the above plus hard sub-surface nodules.
# All subjects had the absence of any visible skin disease(s) which might be confused with a skin reaction from the test material and were in general good health with no known allergies, especially to cosmetic or toiletry products; had no evidence of acute or chronic disease; were not pregnant or lactating; were not on any diet or weight reduction program; and were not on any regular exercise program (immediately prior to or during the course of the study).
# At baseline each subject received a visual examination conducted by a qualified technician and scored for the degree of cellulite. In the same day subjects were treated on the right and left thigh intradermally by multiple injection, (from 5 to 10 injections per thigh using a “Lebel needle” 4 mm×0.4 mm; 27 G). The treatment was repeated once per week for […] (week 0; 1; 2; 3; 4; and 5).
# The degree of cellulite was evaluated according to the following scale: 0=No visible cellulite; 1=Very little visible cellulite, no dimpling; 2=Visible cellulite, evidence of shallow dimpling; 3=Easily visible cellulite, moderate to pronounced dimpling; 4=Extremely visible cellulite, heavy and deep dimpling.
# The patients were divided in 3 groups and treated intradermally by multiple injection with a composition comprising:
# Group A • Propionyl L-Carnitine: 50.0 mg; • Mannitol: 100.0 mg; • Sodium phosphate bibasic bi-hydrate: 24.0 mg; • Trometamine: 8.0 mg; • H2O: 2.5 mL (final volume);
# Group B • Acetyl L-Carnitine: 50.0 mg; • Mannitol: 100.0 mg; • Sodium phosphate bibasic bi-hydrate: 24.0 mg; • Trometamine: 8.0 mg; • H2O: 2.5 mL (final volume); or
# Group C • L-Carnitine: 50.0 mg; • Mannitol: 100.0 mg; • Sodium phosphate bibasic bi-hydrate: 24.0 mg; • Trometamine: 8.0 mg; • H2O: 2.5 mL (final volume).
# Subjects were instructed to discontinue the use of their normal anti-cellulite products to avoid introducing any new products for treating cellulite during the study, and to not be on any diet or weight reduction program or on any regular exercise program immediately prior to or during the course of the study. Each subject was also instructed to keep a diary to document compliance.
# After 7 days from the last treatment (week 6) the subjects returned to the hospital for a final visual evaluation.
# The cellulite evaluation was made according the method described in Cosmetics & Toiletries, 61-70, June 1995, by comparison of the values before and after the treatment.
Structure (SMILES),Reduction of the fatty layer thickness [%],Reduction of the thigh diameter [%],Skin firmness,Skin hydration,Surface smoothness,Subjective improvement,Clinical grading,"Anticellulite activity (overall, in words) (summary of Table 1)",Irritation reactions,Effect on skin infrastructure (dermis of the skin) (summary of Table 1),"Anticellulite activity (overall, in words) (summary of Table 1, listed as compound of the invention)"
"C[N+](C)(C)C[C@H](O)CC(=O)[O-] [L-carnitine, L-Carnitine]",−12,−3,+9%,+10%,+18%,+19%,+12%,inferior compared with that of propionyl L-carnitine,,,
"CC(=O)O[C@H](CC(=O)[O-])C[N+](C)(C)C [Acetyl L-carnitine, Acetyl L-Carnitine]",−10,−2,+6%,+8%,+15%,+15%,+8%,inferior compared with that of propionyl L-carnitine,0,,
"CCC(=O)O[C@H](CC(=O)[O-])C[N+](C)(C)C [Propionyl L-carnitine, Propionyl L-Carnitine]",−28,−11,+20%,+27%,+42%,+57%,+34%,effectively ameliorate the cellulite condition,0,improved skin infrastructure,significantly higher respect to the activity of L-carnitine or acetyl L-carnitine
